Results: patent US20250041277A1, “METHODS AND DOSING REGIMENS COMPRISING A CDK2 INHIBITOR AND A CDK4 INHIBITOR FOR TREATING CANCER” (PFIZER INC., priority 2021, published 2025)

Key:
T47D breast cancer model = test: In vivo efficacy, HR+/HER2− T47D breast cancer model (Example 3); set-up: species or system NSG mice; conditions: Day 41, PO BID: PF-07104091 150 mpk, PF-07220060 60 mpk, palbociclib 10 mpk
Protocol: (§1) Female NSG mice (Jackson Lab) were subcutaneously implanted with fragment (27 mm^3 to 64 mm^3 size) into the dorsal region. All mice for T47D, HCC1428 and ST941 PBR studies were supplemented with 8.5 μg/mL estradiol water (β-Estradiol Sigma-Aldrich, cat #E2758-5G) and gave ad libitum till end of study. For the in vivo efficacy studies, tumor volume and body weights were measured twice a week. Tumor volume was calculated using the [(Length×Width×Width)/2)] formula. TGI was calculated as 100*(1−ΔT/ΔC). The ΔC (ΔT) was obtained by subtracting the mean tumor burden in the vehicle (treated) group on the first day of treatment (Day 0) from the mean tumor burden in vehicle (treated) group on the assessment day. Statistical analysis was performed using ANCOVA when the mean tumor volume in vehicle treated mice reached tumor cutoff size.
The T47D model was established by implanting passage 3 tumor fragments into recipient mice. To establish the T47D donor mice, tumor cells (5×10^6 cell/mouse with 50% Cultrex® Basement Membrane Matrix) were subcutaneously implanted in female NSG mice. Once reaching a range of 700 to 800 mm^3, donor tumors were subsequently transplanted into secondary recipient mice for a study expansion. […] PF-07104091 (lot 016), PF-07220060 (lot 019) and PD-0332991 (lot GR08498) were administered (PO.) BID (7 hr apart). All mice received treatment continuously until Day 41. TGI was assessed on Day 41 post first dose.

CAL12T = test: Combinatorial activity in LUAD cell line CAL12T; type: cell-based; conditions: Homo sapiens, CAL-12T, WT, single agent, read-out: (nM) s.a.
Protocol: (§2) Combinatorial activity of PF-07104091 and PF-07220060 was assessed in LUADs as single agents (s.a.) or in combination.

ST941 PBR PDX model = test: In vivo efficacy, palbociclib-resistant ST941 PBR PDX model (Example 4); set-up: species or system NSG mice; conditions: ST941PBR, Day 28; PO BID: PF-07104091 120 mpk, PF-07220060 60 mpk, PF-06873600 30 mpk, palbociclib 10 mpk; fulvestrant 10 mpk SC
Protocol: as §1, with “HCC1428, MCF7” for “T47D, HCC1428”
We established model in house by continuous treatment of the ST941 PBR tumor bearing mice with PD-0332991 at 50 mg/kg, PO QD plus fulvestrant at 10 mg/kg, SC twice in the first week, then weekly thereafter. To propagate donors for the TGI study, tumors were transplanted to recipient mice. One week after the re-implantation, the recipient mice received continuous treatment with palbociclib plus fulvestrant (dosing schedule described above). After 1 to 2 serial in vivo propagation with the same treatment regimen, the resistant tumors in the range of 700 to 800 mm^3 were re-implanted for a study expansion. The remaining tumor fragments were viably frozen for future use.
The live donor mice were established by implanting ST941 PBR (p13) tumor fragments. Once reaching a range of 700 to 800 mm^3, the donor tumors were subsequently transplanted into secondary recipient mice for a study expansion. To maintain the resistant clones, the ST941 PBR tumor bearing mice were treated with PD-0332991 at 50 mg/kg, PO. QD plus fulvestrant at 10 mg/kg, SC twice in the first week, then weekly afterwards for 10 weeks. The treatment was initiated one week after the implant until day of randomization for study enrollment. […] PF-07104091 (lot 021), PF-07220060 (lot CPo126812-01-SY-5700-01), PF-06873600 (lot 022) and PD-0332991 (lot GR08498) were administered (PO) BID (7 hr apart) while fulvestrant (lot 20160224-2) at 10 mg/kg, SC twice in the first week, then weekly afterwards. All mice received treatment continuously until Day 28. TGI was assessed on Day 28 post first dose.

[1] = system: NCI-H23 lung adenocarcinoma (LUAD) cells; test: Spheroid growth inhibition (SGI) assay, NCI-H23; type: cell-based; conditions: NCI-H23 spheroids; 30 nM palbociclib, 300 nM PF-07220060, 300 nM PF-07104091; 14 days
Protocol: NCI-H1792 and NCI-H23 lung adenocarcinoma (LUAD) cells lines were obtained from ATCC and maintained in RPMI 1640 medium supplemented with 10% fetal bovine serum and penicillin-streptomycin as per ATCC guidelines. Cells were maintained in humidified incubator at 37° C. with 5% CO2.
Spheroid assays were performed in 96 well ultralow attachment plates (ULA-96U) from Nexcelom & Thermo Fisher Scientific. […] To aid spheroid formation, dispensed cells were centrifuged at 220×g for 6 minutes in the ultralow attachment plates and allowed to form compact spheroids for 4 days prior to the initiation of treatment. […] DMSO (0.01%) was used as the vehicle control. DMSO and all compounds were diluted in cell medium. Medium and compounds were replenished twice per week, with 3 and 4-day intervals. Replenishment was executed by aspirating 150 μL of medium per well without disturbing the spheroid and then adding the same volume of premixed medium/compound solution to spheroids. Spheroid diameter was quantified immediately following each medium change twice a week (on every 3rd or 4th day) throughout the duration of the assay.
Average diameters of tumor spheroids were plotted in GraphPad Prism 8 and the AUC calculated. AUC baseline was determined by the average tumor spheroid diameter at Day 0 in the vehicle (DMSO) controls. Spheroid growth inhibition, or SGI, was calculated as follows: SGI=(1−AUC treatment/AUC DMSO)×100%. SGI for all treatment arms was derived at the timepoint when the vehicle (DMSO) treated spheroids reach their maximal diameter (usually close to 1 mm but this can differ among cell lines); this corresponds to the last time point taken for the vehicle (DMSO) treated spheroids. SEM was calculated based on n=10 to 12 wells per test group.
Growth of lung adenocarcinoma multicellular tumor spheroids (MCTS) was monitored over time to assess: (i) amplitude of response (SGI) and (ii) duration of response to the CDK4 inhibitor PF-07220060 as a single agent, and in combination with the CDK2 inhibitor PF-07104091.

NCIH1944 = test: Combinatorial activity in LUAD cell line NCIH1944; type: cell-based; conditions: Homo sapiens, NCI-H1944; NCIH1944, KRAS G13D; single agent; read-out: (nM) s.a.
Protocol: as §2

IC50 (CAL12T) [nM]	IC50 (NCIH1944) [nM]	SMILES	TGI % (T47D breast cancer model) [%]	TGI % (ST941 PBR PDX model) [%]	SGI (%) [1] [%]
220	227	COCc1cc(C(=O)Nc2cc([C@H]3CC[C@@H](OC(=O)NC(C)C)C3)[nH]n2)n(C)n1 [PF-07104091, (1R,3S)-3-[3-({[3-(methoxymethyl)-1-methyl-1H-pyrazol-5-yl]carbonyl}amino)-1H-pyrazol-5-yl]cyclopentyl propan-2-ylcarbamate]	82	36	9
210	398	CC(C)n1c(C(C)(C)O)nc2c(F)cc(-c3nc(N[C@@H]4CCOC[C@H]4O)ncc3Cl)cc21 [PF-07220060, 1,5-anhydro-3-({5-chloro-4-[4-fluoro-2-(2-hydroxypropan-2-yl)-1-(propan-2-yl)-1H-benzimidazol-6-yl]pyrimidin-2-yl}amino)-2,3-dideoxy-D-threo-pentitol]	73	19	35
